Bounds are passed on as bounds.

This passage reports microsomal CLint, half-life and IC50 results from ChEMBL document CHEMBL2016494, “Ligand-based design of a potent and selective inhibitor of cytochrome P450 2C19” (J Med Chem, 2012).

Data set [1] in a line: Apparent intrinsic clearance in human liver microsomes by LC-MS/MS analysis. In general terms: Liver microsomes are vesicles of endoplasmic reticulum, rich in cytochrome P450 enzymes.
Data set [2] in a line: Half life in human liver microsomes by LC-MS/MS analysis.
The target in a further data set is T1, Cytochrome P450 2B6 (Homo sapiens, UniProt P20813).
T1 sequence (P20813 whole entry): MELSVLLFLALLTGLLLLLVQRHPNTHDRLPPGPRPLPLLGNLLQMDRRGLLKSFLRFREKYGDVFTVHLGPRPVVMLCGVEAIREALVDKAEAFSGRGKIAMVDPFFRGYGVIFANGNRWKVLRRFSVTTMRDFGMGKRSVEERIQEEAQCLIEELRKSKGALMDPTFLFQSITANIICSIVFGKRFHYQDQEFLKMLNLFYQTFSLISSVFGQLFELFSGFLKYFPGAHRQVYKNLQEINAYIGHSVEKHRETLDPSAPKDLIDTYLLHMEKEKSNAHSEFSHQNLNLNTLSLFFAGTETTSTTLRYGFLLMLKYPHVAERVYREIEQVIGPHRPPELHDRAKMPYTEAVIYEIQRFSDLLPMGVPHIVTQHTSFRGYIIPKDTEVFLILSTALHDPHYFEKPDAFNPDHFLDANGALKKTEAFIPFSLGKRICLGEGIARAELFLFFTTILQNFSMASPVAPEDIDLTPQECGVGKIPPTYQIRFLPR
Description: Inhibition of CYP2B6 in human liver microsomes using bupropion as substrate preincubated for 5 mins by LC-MS/MS analysis.

Another data set concerns the target Cytochrome P450 2E1 (Homo sapiens, UniProt P05181). Kind of data set: Inhibition of CYP2E1 in human liver microsomes using chlorzoxazone as substrate preincubated for 5 mins by LC-MS/MS analysis.
A further data set addresses T2, Cytochrome P450 2C8 (Homo sapiens, UniProt P10632).
T2 sequence (P10632 whole entry): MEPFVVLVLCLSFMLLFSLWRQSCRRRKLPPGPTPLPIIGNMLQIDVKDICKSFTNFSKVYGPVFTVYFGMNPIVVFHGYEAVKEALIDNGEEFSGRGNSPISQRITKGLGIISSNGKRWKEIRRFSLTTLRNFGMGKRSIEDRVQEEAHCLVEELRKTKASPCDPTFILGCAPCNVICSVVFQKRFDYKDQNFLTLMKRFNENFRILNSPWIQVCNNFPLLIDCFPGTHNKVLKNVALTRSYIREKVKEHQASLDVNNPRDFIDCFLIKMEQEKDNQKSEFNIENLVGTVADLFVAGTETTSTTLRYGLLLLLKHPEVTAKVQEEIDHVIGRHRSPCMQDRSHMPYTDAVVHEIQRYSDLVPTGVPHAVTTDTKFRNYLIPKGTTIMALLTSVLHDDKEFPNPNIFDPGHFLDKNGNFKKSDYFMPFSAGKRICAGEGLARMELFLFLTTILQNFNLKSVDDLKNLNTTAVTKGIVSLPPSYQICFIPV
Kind of data set: Inhibition of CYP2C8 in human liver microsomes using paclitaxel as substrate preincubated for 5 mins by LC-MS/MS analysis.

The target of the next data set is T3, Cytochrome P450 1A2 (Homo sapiens, UniProt P05177).
T3 sequence (P05177 whole entry): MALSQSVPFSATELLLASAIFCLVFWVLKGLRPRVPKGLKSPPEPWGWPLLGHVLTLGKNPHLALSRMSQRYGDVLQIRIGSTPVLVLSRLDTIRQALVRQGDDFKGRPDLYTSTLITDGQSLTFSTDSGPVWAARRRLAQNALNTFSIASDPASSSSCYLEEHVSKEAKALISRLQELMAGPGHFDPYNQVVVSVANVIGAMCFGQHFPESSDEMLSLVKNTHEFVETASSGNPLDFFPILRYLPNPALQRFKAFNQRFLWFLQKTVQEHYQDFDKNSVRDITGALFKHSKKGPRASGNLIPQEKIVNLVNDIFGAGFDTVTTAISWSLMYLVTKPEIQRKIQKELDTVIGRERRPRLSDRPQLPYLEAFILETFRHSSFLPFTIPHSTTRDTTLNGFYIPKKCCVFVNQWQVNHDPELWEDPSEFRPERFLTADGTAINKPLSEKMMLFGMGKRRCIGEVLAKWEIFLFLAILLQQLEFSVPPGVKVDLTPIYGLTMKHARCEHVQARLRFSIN
Kind of data set: Inhibition of CYP1A2 in human liver microsomes using phenacetin preincubated for 5 mins by LC-MS/MS analysis.

A further data set has as its target Cytochrome P450 2D6 (Homo sapiens, UniProt P10635). Kind of data set: Inhibition of CYP2D6 in human liver microsomes using dextromethorphan as substrate preincubated for 5 mins by LC-MS/MS analysis.

Cytochrome P450 2D6, sequence (P10635 whole entry): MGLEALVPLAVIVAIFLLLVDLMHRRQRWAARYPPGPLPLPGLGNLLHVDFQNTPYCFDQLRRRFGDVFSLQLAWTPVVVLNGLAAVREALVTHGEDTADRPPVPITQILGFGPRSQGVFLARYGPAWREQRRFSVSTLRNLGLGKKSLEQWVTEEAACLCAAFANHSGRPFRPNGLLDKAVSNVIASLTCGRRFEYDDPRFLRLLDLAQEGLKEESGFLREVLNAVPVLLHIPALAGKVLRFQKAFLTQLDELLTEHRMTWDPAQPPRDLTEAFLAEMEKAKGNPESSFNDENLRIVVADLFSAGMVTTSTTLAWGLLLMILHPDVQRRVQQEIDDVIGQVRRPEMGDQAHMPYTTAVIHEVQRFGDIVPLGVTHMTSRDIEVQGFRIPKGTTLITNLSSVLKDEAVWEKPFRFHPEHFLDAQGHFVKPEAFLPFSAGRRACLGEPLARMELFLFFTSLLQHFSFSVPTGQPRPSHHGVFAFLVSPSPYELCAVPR
Cytochrome P450 2E1, sequence (P05181 whole entry): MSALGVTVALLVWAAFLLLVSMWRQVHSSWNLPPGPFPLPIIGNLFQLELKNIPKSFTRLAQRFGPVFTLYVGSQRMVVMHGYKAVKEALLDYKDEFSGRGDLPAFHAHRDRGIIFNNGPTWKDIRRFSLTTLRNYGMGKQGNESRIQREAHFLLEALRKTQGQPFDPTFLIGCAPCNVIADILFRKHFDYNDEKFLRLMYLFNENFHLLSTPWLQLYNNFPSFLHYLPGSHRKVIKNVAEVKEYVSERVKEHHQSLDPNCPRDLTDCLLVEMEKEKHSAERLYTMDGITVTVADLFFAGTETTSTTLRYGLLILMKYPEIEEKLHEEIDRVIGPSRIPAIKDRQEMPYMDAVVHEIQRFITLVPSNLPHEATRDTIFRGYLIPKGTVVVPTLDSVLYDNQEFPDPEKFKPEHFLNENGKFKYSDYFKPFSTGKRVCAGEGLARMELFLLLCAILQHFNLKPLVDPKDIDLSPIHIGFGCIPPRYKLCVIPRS

What is called microsomal CLint is the capacity of the preparation to metabolise the compound, expressed as a volume cleared per time. A word on the half-life: it is how long it takes for the measured level to halve. Low values mean rapid decline, high ones slow decline. On to `COc1ccc2nc(SCc3ccc(C(=O)O)cc3)[nH]c2c1`, for which, in data set [1] (liver microsomes), the microsomal CLint came to 860 µL/min/mg. In data set [2] (liver microsomes), this compound displayed a half-life of 0.134 h.

Usually IC50 stands for the concentration needed to halve the response being measured. Read a high IC50 as weaker potency. Turning to `COc1ccc2[nH]c(SCc3ccccc3)nc2c1`, the concentration for half-maximal inhibition (IC50) against Cytochrome P450 2B6, against Cytochrome P450 2E1 and against Cytochrome P450 2C8 was more than 50 µM in each case. In data set [1] (microsomes), the microsomal CLint is less than 57.8 µL/min/mg. In addition, the half-life in data set [2] (microsomes) stood at 2 h.

Consider `COc1ccc2[nH]c(SCCCC(=O)O)nc2c1`, for which half-maximal inhibition against Cytochrome P450 2B6 (IC50) required 28.8 µM. Moreover, the intrinsic metabolic clearance (microsomal CLint) in data set [1] (liver microsomes) is less than 57.8 µL/min/mg. Moreover, in data set [2] (liver microsomes), the half-life was determined as 2 h.

With `CCCSc1nc2ccc(OC)cc2[nH]1`, the IC50 at Cytochrome P450 1A2 stood at 0.93 µM; against Cytochrome P450 2D6, 1.94 µM; against Cytochrome P450 2C8, 3.12 µM. Also, the intrinsic metabolic clearance (microsomal CLint) in data set [1] (microsomes) came out at 724 µL/min/mg. Moreover, the half-life in data set [2] (microsomes) was 0.16 h.
